Paper PMC12251549, “Engineering a Radiohybrid PSMA Ligand with an Albumin-Binding Moiety and Pharmacokinetic Modulation via an Albumin-Binding Competitor for Radiotheranostics” (Molecules, 2025)

Experiments:
[1] = test system: PSMA-expressing LNCaP cells; test: Cellular uptake and internalization in LNCaP cells, blocking with 2-PMPA; format: cell-based; details: 2-PMPA 100 µM
Method: Cellular uptake experiments were performed according to a previous report with slight modifications. LNCaP cells expressing PSMA were cultured in RPMI 1640 medium containing 10% fetal bovine serum (FBS) and 1% penicillin–streptomycin on 6-well culture plates (containing 5 × 10^5 cells/well) for 24 h in a humidified atmosphere (5% CO2) incubator at 37 °C. After removing the medium and washing with phosphate-buffered saline (PBS) (−) once, a mixed solution of [^125I]5 and [^211At]6, [^125I]5 and [^67Ga]Ga-PSMA-617, and [^125I]5 and [^67Ga]5 in 1.0 mL of medium without FBS was added (3.7 kBq/each tracer/well). The final concentrations of the radioligands for [^125I]5, [^211At]6, and [^67Ga]5 were 45.5 pM, 0.2 pM, and 2.5 pM, respectively. These solutions containing radioligands were diluted in saline containing 0.05% (w/v) bovine serum albumin (BSA) to prevent adsorption to tubes or plates and further diluted with medium to 0.00125% as the final BSA concentration. After incubation for 10, 60, and 120 min, the medium from each well was removed, and the cells were washed twice with ice-cold PBS (−); the surface of the cells was washed twice with ice-cold 0.2 M glycine buffer (pH 3.0). The cells were lysed using a 1 M NaOH aqueous solution. The radioactivity of ^67Ga,^125I and ^211At in the 1 M NaOH aqueous solution was determined and defined as the internalized radioligand fraction using an auto well gamma counter (ARC-8001, Hitachi, Ltd., Tokyo, Japan) according to a previous paper. The radioactivity was determined with an auto well gamma counter and corrected for background radiation and physical decay during counting. A window from 16 to 69 keV was used for counting ^125I, and a window from 70 to 120 keV was used for counting ^211At. Correlation factors to eliminate any crossover of ^125I activity in the ^211At counts were determined by measuring the ^125I standard in each window. More than one week after the experiments, the radioactivity counts of ^125I were measured after the decay of ^211At. The protein amount in cells was quantified using a BCA Protein Assay Kit (Nacalai Tesque, Kyoto, Japan) according to the manufacturer’s protocol. All data were expressed as percent dose per milligram protein (%dose/mg protein). In blocking experiments, a selective inhibitor of the PSMA, (2S)-2-(phosphonomethyl)pentanedioic acid (2-PMPA) (final concentration 100 µM), was added to each well with tracers. After incubation for 10, 60, and 120 min, radioactivity and protein concentration were determined in the same manner as the experiment without the blocking agent.

[2] = Biodistribution after intravenous co-injection of [125I]5 and [211At]6 (Table S2); format: in vivo, normal mice (ddY); details: normal mice
Method: [^67Ga]Ga-PSMA-617 (37 kBq) and [^125I]5 (37 kBq) or [^125I]5 (37 kBq) and [^211At]6 (37 kBq) were intravenously co-administered into three or four normal mice at each timepoint (6 weeks male ddY mice, 28–30 g, Japan SLC, Inc., Hamamatsu, Japan). Mice were sacrificed at 10 min, 1 h, 4 h, and 24 h ([^67Ga]Ga-PSMA-617 and [^125I]5) or at 10 min, 1 h, 4 h, 12 h, and 24 h ([^125I]5 and [^211At]6) postinjection of the radiolabeled compounds. Tissues of interest were removed and weighed, and the radioactivity of ^67Ga and ^125I and ^125I and ^211At were determined with an auto well gamma counter (ARC-8001) and corrected for background radiation as described in the Cellular Uptake Experiments Section. To determine the amount and routes of the radioactivity excreted from the body for 24 h after the injection of radiolabeled compounds, mice were housed in metabolic cages (METABOLICA, SUGIYAMA-GEN Co., Ltd., Tokyo, Japan). Data are shown as the percentage of injected dose per gram of tissues (%ID/g) or %ID.

[3] = In vitro stability test in 0.1 M phosphate buffer; format: physicochemical; details: 0.1 M PB solution containing 10% ethanol, 37 °C, 24 h, mean ± SD for three samples
Method: samples were analyzed by RP-HPLC using a Cosmosil 5C18-AR-II (4.6 × 150 mm) at a flow rate of 1 mL/min with a gradient mobile phase of 60% methanol in water with 0.1% trifluoroacetic acid (TFA) to 80% methanol in water with 0.1% TFA for 20 min.
In vitro stability test in 0.1 M PB solution containing 10% ethanol was performed. The […]
and 97.1 ± 0.9% (mean ± SD for three samples) after incubating at 37 °C for 24 h, […]

[4] = Biodistribution with post-administration of albumin-binding competitor IPBA; format: in vivo, normal mice (ddY); details: normal mice, IPBA at 1 h postinjection, 10 molar equivalent of blood albumin; except in the kidney
Method: To evaluate the effects of an albumin-binding competitor (sodium salt of IPBA) in normal mice, [^125I]5 and [^211At]6 were intravenously co-administered. At 1 h postinjection of the radiolabeled compounds, IPBA (3.4 mg, 11 µmol) dissolved in saline at a 10 molar equivalent of blood albumin was administered. Mice were sacrificed at 65 min, 70 min, 2 h, 4 h, 12 h, and 24 h postinjection of [^125I]5 and [^211At]6. Tissues of interest were treated, and the radioactivity was measured in the same manner as above. Data are also shown as %ID/g or %ID.

In vivo dehalogenation (radioactivity in stomach and neck) [2]: minimal deiodination or deastatination | Biodistribution of radioactivity: Blood ([2]; i.v., 10 min after injection): 26.93 (0.47) % injected dose per gram | Biodistribution of radioactivity: Bone ([2]; i.v., 10 min after injection): 2.74 (0.53) % injected dose per gram | Biodistribution of radioactivity: Brain ([2]; i.v., 10 min after injection): 0.53 (0.06) % injected dose per gram | Biodistribution of radioactivity: Heart ([2]; i.v., 10 min after injection): 4.66 (0.37) % injected dose per gram | Biodistribution of radioactivity: Kidney ([2]; i.v., 10 min after injection): 5.19 (0.64) % injected dose per gram | Biodistribution of radioactivity: L. Intestine ([2]; i.v., 10 min after injection): 0.78 (0.05) % injected dose per gram | Biodistribution of radioactivity: Liver ([2]; i.v., 10 min after injection): 3.61 (0.05) % injected dose per gram | Biodistribution of radioactivity: Lung ([2]; i.v., 10 min after injection): 15.25 (2.29) % injected dose per gram | Biodistribution of radioactivity: Muscle ([2]; i.v., 10 min after injection): 0.99 (0.14) % injected dose per gram | Biodistribution of radioactivity: Neck ([2]; i.v., 10 min after injection): 0.04 (0.01) % injected dose | Biodistribution of radioactivity: Pancreas ([2]; i.v., 10 min after injection): 2.59 (0.24) % injected dose per gram | Biodistribution of radioactivity: S. Intestine ([2]; i.v., 10 min after injection): 1.42 (0.15) % injected dose per gram | Biodistribution of radioactivity: Spleen ([2]; i.v., 10 min after injection): 2.56 (0.44) % injected dose per gram | Biodistribution of radioactivity: Stomach ([2]; i.v., 10 min after injection): 0.85 (0.07) % injected dose | Biodistribution of radioactivity: Blood ([2]; i.v., 1 h after injection): 17.94 (1.58) % injected dose per gram | Biodistribution of radioactivity: Bone ([2]; i.v., 1 h after injection): 1.92 (0.21) % injected dose per gram | Biodistribution of radioactivity: Brain ([2]; i.v., 1 h after injection): 0.38 (0.12) % injected dose per gram | Biodistribution of radioactivity: Heart ([2]; i.v., 1 h after injection): 4.88 (0.26) % injected dose per gram | Biodistribution of radioactivity: Kidney ([2]; i.v., 1 h after injection): 4.36 (0.53) % injected dose per gram | Biodistribution of radioactivity: L. Intestine ([2]; i.v., 1 h after injection): 0.93 (0.15) % injected dose per gram | Biodistribution of radioactivity: Liver ([2]; i.v., 1 h after injection): 2.54 (0.38) % injected dose per gram | Biodistribution of radioactivity: Lung ([2]; i.v., 1 h after injection): 10.21 (2.55) % injected dose per gram | Biodistribution of radioactivity: Muscle ([2]; i.v., 1 h after injection): 1.25 (0.10) % injected dose per gram | Biodistribution of radioactivity: Neck ([2]; i.v., 1 h after injection): 0.04 (0.01) % injected dose | Biodistribution of radioactivity: Pancreas ([2]; i.v., 1 h after injection): 2.07 (0.45) % injected dose per gram | Biodistribution of radioactivity: S. Intestine ([2]; i.v., 1 h after injection): 1.59 (0.31) % injected dose per gram | Biodistribution of radioactivity: Spleen ([2]; i.v., 1 h after injection): 1.77 (0.11) % injected dose per gram | Biodistribution of radioactivity: Stomach ([2]; i.v., 1 h after injection): 0.84 (0.27) % injected dose | Biodistribution of radioactivity: Blood ([2]; i.v., 4 h after injection): 13.40 (1.08) % injected dose per gram | Biodistribution of radioactivity: Bone ([2]; i.v., 4 h after injection): 1.59 (0.09) % injected dose per gram | Biodistribution of radioactivity: Brain ([2]; i.v., 4 h after injection): 0.32 (0.06) % injected dose per gram | Biodistribution of radioactivity: Heart ([2]; i.v., 4 h after injection): 4.31 (0.39) % injected dose per gram | Biodistribution of radioactivity: Kidney ([2]; i.v., 4 h after injection): 4.44 (0.25) % injected dose per gram | Biodistribution of radioactivity: L. Intestine ([2]; i.v., 4 h after injection): 1.15 (0.35) % injected dose per gram | Biodistribution of radioactivity: Liver ([2]; i.v., 4 h after injection): 1.55 (0.24) % injected dose per gram | Biodistribution of radioactivity: Lung ([2]; i.v., 4 h after injection): 7.81 (1.92) % injected dose per gram | Biodistribution of radioactivity: Muscle ([2]; i.v., 4 h after injection): 1.27 (0.08) % injected dose per gram | Biodistribution of radioactivity: Neck ([2]; i.v., 4 h after injection): 0.04 (0.01) % injected dose | Biodistribution of radioactivity: Pancreas ([2]; i.v., 4 h after injection): 1.76 (0.35) % injected dose per gram | Biodistribution of radioactivity: S. Intestine ([2]; i.v., 4 h after injection): 1.30 (0.19) % injected dose per gram | Biodistribution of radioactivity: Spleen ([2]; i.v., 4 h after injection): 1.60 (0.25) % injected dose per gram | Biodistribution of radioactivity: Stomach ([2]; i.v., 4 h after injection): 0.83 (0.18) % injected dose | Biodistribution of radioactivity: Blood ([2]; i.v., 12 h after injection): 12.23 (1.51) % injected dose per gram | Biodistribution of radioactivity: Bone ([2]; i.v., 12 h after injection): 1.91 (0.32) % injected dose per gram | Biodistribution of radioactivity: Brain ([2]; i.v., 12 h after injection): 0.42 (0.07) % injected dose per gram | Biodistribution of radioactivity: Heart ([2]; i.v., 12 h after injection): 3.83 (0.57) % injected dose per gram | Biodistribution of radioactivity: Kidney ([2]; i.v., 12 h after injection): 5.31 (0.31) % injected dose per gram | Biodistribution of radioactivity: L. Intestine ([2]; i.v., 12 h after injection): 0.79 (0.16) % injected dose per gram | Biodistribution of radioactivity: Liver ([2]; i.v., 12 h after injection): 1.58 (0.12) % injected dose per gram | Biodistribution of radioactivity: Lung ([2]; i.v., 12 h after injection): 7.79 (0.46) % injected dose per gram | Biodistribution of radioactivity: Muscle ([2]; i.v., 12 h after injection): 1.37 (0.10) % injected dose per gram | Biodistribution of radioactivity: Neck ([2]; i.v., 12 h after injection): 0.18 (0.06) % injected dose | Biodistribution of radioactivity: Pancreas ([2]; i.v., 12 h after injection): 1.44 (0.82) % injected dose per gram | Biodistribution of radioactivity: S. Intestine ([2]; i.v., 12 h after injection): 1.06 (0.11) % injected dose per gram | Biodistribution of radioactivity: Spleen ([2]; i.v., 12 h after injection): 1.71 (0.33) % injected dose per gram | Biodistribution of radioactivity: Stomach ([2]; i.v., 12 h after injection): 1.04 (0.11) % injected dose | Biodistribution of radioactivity: Blood ([2]; i.v., 24 h after injection): 10.45 (0.19) % injected dose per gram | Biodistribution of radioactivity: Bone ([2]; i.v., 24 h after injection): 1.56 (0.33) % injected dose per gram | Biodistribution of radioactivity: Brain ([2]; i.v., 24 h after injection): 0.43 (0.14) % injected dose per gram | Biodistribution of radioactivity: Heart ([2]; i.v., 24 h after injection): 4.06 (1.41) % injected dose per gram | Biodistribution of radioactivity: Kidney ([2]; i.v., 24 h after injection): 3.50 (0.24) % injected dose per gram | Biodistribution of radioactivity: L. Intestine ([2]; i.v., 24 h after injection): 0.62 (0.15) % injected dose per gram | Biodistribution of radioactivity: Liver ([2]; i.v., 24 h after injection): 1.43 (0.07) % injected dose per gram | Biodistribution of radioactivity: Lung ([2]; i.v., 24 h after injection): 5.77 (0.84) % injected dose per gram | Biodistribution of radioactivity: Muscle ([2]; i.v., 24 h after injection): 1.28 (0.09) % injected dose per gram | Biodistribution of radioactivity: Neck ([2]; i.v., 24 h after injection): 0.14 (0.06) % injected dose | Biodistribution of radioactivity: Pancreas ([2]; i.v., 24 h after injection): 1.61 (0.22) % injected dose per gram | Biodistribution of radioactivity: S. Intestine ([2]; i.v., 24 h after injection): 0.81 (0.05) % injected dose per gram | Biodistribution of radioactivity: Spleen ([2]; i.v., 24 h after injection): 1.33 (0.43) % injected dose per gram | Biodistribution of radioactivity: Stomach ([2]; i.v., 24 h after injection): 1.31 (0.10) % injected dose | Biodistribution of radioactivity: Feces ([2]; i.v., excreted for 24 h after injection (column not printed safely), Table S2): 2.00 (0.33) % injected dose | Blood retention ([2]; profile resembled that of [125I]5): prolonged blood retention | Radiochemical purity after incubation (in vitro stability) [3]: 97.1 ± 0.9% | Effect of IPBA administration on radioactivity levels in tissues [4]: significantly decreased
Compound: O=C([O-])CN1CCN(CC(=O)[O-])CCN(CC(=O)NC(CCCCNC(=O)CCCc2ccc([211At])cc2)C(=O)NCC2CCC(C(=O)NC(Cc3ccc4ccccc4c3)C(=O)NCCCCC(NC(=O)NC(CCC(=O)O)C(=O)O)C(=O)O)CC2)CCN(CC(=O)[O-])CC1.[Ga+3] (stereo not shown) [[^211At]6]
Effect of excess 2-PMPA on cellular uptake [1]: significantly reduced
